# Results reported in patent publication US20230257372A1 (CHONG KUN DANG PHARMACEUTICAL CORP., priority 2020, published 2023).
# Where two headings read alike, the source gives them in different places.
# Experiments:
# human recombinant HDAC1 = target: T1, human recombinant HDAC1 (Homo sapiens, UniProt Q13547); assay: HDAC1 enzyme activity inhibition (HDAC Fluorimetric Drug Discovery Kit); assay type: biochemical; conditions: read-out: HDAC1
# T1 construct: purchased Enzo Life Science, Inc. BML-SE456
# Outline: (§1)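 Enzyme at 0.3 µg per well was reacted with 10 μM fluorogenic substrate in presence of 5-fold diluted compound, 30° C for 60 min.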
# human recombinant HDAC6 = target: T2, human recombinant HDAC6 (Homo sapiens, UniProt Q9UBN7); assay: HDAC6 enzyme activity inhibition (HDAC Fluorimetric Drug Discovery Kit); assay type: biochemical
# T2 construct: purchased Calbiochem Inc. 382180
# T2 sequence (Q9UBN7 1-1215): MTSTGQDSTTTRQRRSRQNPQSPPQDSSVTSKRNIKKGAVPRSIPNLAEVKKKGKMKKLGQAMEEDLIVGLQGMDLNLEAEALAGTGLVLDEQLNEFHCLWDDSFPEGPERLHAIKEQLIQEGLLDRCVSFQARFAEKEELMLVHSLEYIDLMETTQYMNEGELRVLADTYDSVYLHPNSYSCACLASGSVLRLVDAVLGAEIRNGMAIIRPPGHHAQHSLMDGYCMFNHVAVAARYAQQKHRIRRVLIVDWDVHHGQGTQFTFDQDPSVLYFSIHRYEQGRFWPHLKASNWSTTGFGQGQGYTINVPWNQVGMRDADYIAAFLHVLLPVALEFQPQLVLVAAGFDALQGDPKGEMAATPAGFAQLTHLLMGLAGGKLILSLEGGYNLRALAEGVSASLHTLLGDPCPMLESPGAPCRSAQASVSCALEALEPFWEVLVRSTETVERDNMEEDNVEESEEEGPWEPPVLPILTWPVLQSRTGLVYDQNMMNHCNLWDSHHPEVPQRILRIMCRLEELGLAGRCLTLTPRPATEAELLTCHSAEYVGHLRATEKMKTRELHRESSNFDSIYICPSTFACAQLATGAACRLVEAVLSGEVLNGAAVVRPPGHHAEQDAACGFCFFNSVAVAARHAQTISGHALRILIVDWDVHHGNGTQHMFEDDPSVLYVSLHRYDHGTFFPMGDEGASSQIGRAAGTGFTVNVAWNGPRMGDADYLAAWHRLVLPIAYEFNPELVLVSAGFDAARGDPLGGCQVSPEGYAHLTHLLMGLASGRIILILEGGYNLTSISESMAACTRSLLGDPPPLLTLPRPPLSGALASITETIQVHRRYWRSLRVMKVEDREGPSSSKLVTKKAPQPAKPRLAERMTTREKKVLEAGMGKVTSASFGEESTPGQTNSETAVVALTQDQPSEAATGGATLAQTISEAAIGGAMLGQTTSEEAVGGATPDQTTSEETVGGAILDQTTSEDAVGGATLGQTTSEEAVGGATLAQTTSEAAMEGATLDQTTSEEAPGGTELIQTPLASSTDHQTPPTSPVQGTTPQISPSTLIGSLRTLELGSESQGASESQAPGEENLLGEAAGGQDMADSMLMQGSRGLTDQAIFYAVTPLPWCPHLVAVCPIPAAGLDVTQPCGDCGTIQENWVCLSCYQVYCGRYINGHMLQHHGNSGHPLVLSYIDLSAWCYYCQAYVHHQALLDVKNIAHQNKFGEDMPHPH
# Outline: as §1
# [1] = human recombinant HDAC1, IC50 calculated with GraphPad Prism
# [2] = human recombinant HDAC6, IC50 calculated with GraphPad Prism
# [3] = human recombinant HDAC1, Fluor de Lys substrate, 30° C. 60 minutes
# [4] = human recombinant HDAC6, same protocol as HDAC1
# T1 sequence (Q13547 whole entry): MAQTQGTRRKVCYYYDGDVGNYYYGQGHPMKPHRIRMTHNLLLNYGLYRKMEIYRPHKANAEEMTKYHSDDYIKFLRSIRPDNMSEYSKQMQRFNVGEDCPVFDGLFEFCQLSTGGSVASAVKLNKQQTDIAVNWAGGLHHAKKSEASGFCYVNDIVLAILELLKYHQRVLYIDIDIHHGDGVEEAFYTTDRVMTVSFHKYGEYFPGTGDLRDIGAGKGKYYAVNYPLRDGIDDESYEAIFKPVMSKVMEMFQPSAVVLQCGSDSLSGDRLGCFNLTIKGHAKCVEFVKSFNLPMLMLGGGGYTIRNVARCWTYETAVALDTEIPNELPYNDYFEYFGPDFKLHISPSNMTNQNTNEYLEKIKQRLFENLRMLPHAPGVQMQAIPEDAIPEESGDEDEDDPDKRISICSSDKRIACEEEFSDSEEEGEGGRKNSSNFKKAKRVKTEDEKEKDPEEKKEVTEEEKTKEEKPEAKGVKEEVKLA
SMILES,IC50 (human recombinant HDAC1; [1]) [µM],HDAC6 selectivity (fold) (human recombinant HDAC6; HDAC1 IC50 / HDAC6 IC50),IC50 (human recombinant HDAC6; [2]) [nM],IC50 (human recombinant HDAC1; [3]) [µM],HDAC6 selectivity (fold) (human recombinant HDAC6; HDAC6 over HDAC1),IC50 (human recombinant HDAC6; [4]) [nM]
"Fc1ccc(N2CCN(C3COC3)CC2)cc1-c1cn(Cc2ccc(-c3nnc(C(F)F)o3)cc2)nn1 [Compound 4455, 2-(difluoromethyl)-5-(4-((4-(2-fluoro-5-(4-(oxetan-3-yl)piperazin-1-yl)phenyl)-1H-1,2,3-triazol-1-yl)methyl)phenyl)-1,3,4-oxadiazole]",> 50,520,96.1,–,–,–
Fc1cc(-c2nnc(C(F)F)o2)ccc1Cn1cc(-c2cccc(C3CN(C4CCC4)C3)c2)nn1 [Compound 4507],–,–,–,> 50,1779,28.1
"Fc1c(-c2cn(Cc3ccc(-c4nnc(C(F)F)o4)cn3)nn2)cccc1N1CCN(C2CCC2)CC1 [Compound 4572, 2-(6-((4-(3-(4-cyclobutylpiperazin-1-yl)-2-fluorophenyl)-1H-1,2,3-triazol-1-yl)methyl)pyridin-3-yl)-5-(difluoromethyl)-1,3,4-oxadiazole]",–,–,–,> 50,2564,19.5
"CCN1CCN(Cc2ccccc2-c2cn(Cc3ccc(-c4nnc(C(F)F)o4)cc3F)nn2)CC1 [Compound 4588, 2-(difluoromethyl)-5-(4-((4-(2-((4-ethylpiperazin-1-yl)methyl)phenyl)-1H-1,2,3-triazol-1-yl)methyl)-3-fluorophenyl)-1,3,4-oxadiazole]",–,–,–,> 50,229,218
"Fc1cc(-c2nnc(C(F)F)o2)ccc1Cn1cc(-c2ccc(CN3CCCC3)cc2)nn1 [Compound 4521, 2-(difluoromethyl)-5-(3-fluoro-4-((4-(4-(pyrrolidin-1-ylmethyl)phenyl)-1H-1,2,3-triazol-1-yl)methyl)phenyl)-1,3,4-oxadiazole]",–,–,–,> 50,4464,11.2
"Fc1cc(-c2nnc(C(F)F)o2)cnc1Cn1cc(-c2cncc(CN3CCC3)c2)nn1 [Compound 18882, 2-(6-((4-(5-(azetidin-1-ylmethyl)pyridin-3-yl)-1H-1,2,3-triazol-1-yl)methyl)-5-fluoropyridin-3-yl)-5-(difluoromethyl)-1,3,4-oxadiazole]",–,–,–,> 50,306,163
"FC(F)c1nnc(-c2ccc(Cn3cc(-c4cccc(C5CN(C6COC6)C5)c4)nn3)cc2)o1 [Compound 4511, 2-(difluoromethyl)-5-(4-((4-(3-(1-(oxetan-3-yl)azetidin-3-yl)phenyl)-1H-1,2,3-triazol-1-yl)methyl)phenyl)-1,3,4-oxadiazole]",–,–,–,> 50,325,64.2
"CN1CCC(c2ccc(-c3cn(Cc4ncc(-c5nnc(C(F)F)o5)cc4F)nn3)cc2)CC1 [Compound 19087, 2-(difluoromethyl)-5-(5-fluoro-6-((4-(4-(1-methylpiperidin-4-yl)phenyl)-1H-1,2,3-triazol-1-yl)methyl)pyridin-3-yl)-1,3,4-oxadiazole]",–,–,–,> 50,650,76.9
"Fc1cc(-c2nnc(C(F)F)o2)ccc1Cn1cc(-c2cccc(C3CN(C4COC4)C3)c2)nn1 [Compound 4462, 2-(difluoromethyl)-5-(3-fluoro-4-((4-(3-(1-(oxetan-3-yl)azetidin-3-yl)phenyl)-1H-1,2,3-triazol-1-yl)methyl)phenyl)-1,3,4-oxadiazole]",> 50,540,92.5,–,–,–
"CN1Cc2cccc(-c3cn(Cc4ccc(-c5nnc(C(F)F)o5)cc4)nn3)c2C1 [Compound 4529, 2-(difluoromethyl)-5-(4-((4-(2-methylisoindolin-4-yl)-1H-1,2,3-triazol-1-yl)methyl)phenyl)-1,3,4-oxadiazole]",–,–,–,> 50,313,160

# Further lines, results first:
IC50 (human recombinant HDAC1; [1]) [µM],HDAC6 selectivity (fold) (human recombinant HDAC6; HDAC1 IC50 / HDAC6 IC50),IC50 (human recombinant HDAC6; [2]) [nM],IC50 (human recombinant HDAC1; [3]) [µM],HDAC6 selectivity (fold) (human recombinant HDAC6; HDAC6 over HDAC1),IC50 (human recombinant HDAC6; [4]) [nM],SMILES
> 50,258,193,–,–,–,"Cc1nc(-c2ccccc2)cn1Cc1ccc(-c2nnc(C(F)F)o2)cn1 [Compound 3945, 2-(difluoromethyl)-5-(6-((2-methyl-4-phenyl-1H-imidazol-1-yl)methyl)pyridin-3-yl)-1,3,4-oxadiazole]"
> 50,96,519,–,–,–,"FC(F)c1nnc(-c2ccc(Cn3cc(-c4cccc(CN5CCC5)c4)nn3)cc2)o1 [Compound 4409, 2-(4-((4-(3-(azetidin-1-ylmethyl)phenyl)-1H-1,2,3-triazol-1-yl)methyl)phenyl)-5-(difluoromethyl)-1,3,4-oxadiazole]"
> 50,412,121,–,–,–,"CN(C)c1cccc(-c2cn(Cc3ccc(-c4nnc(C(F)F)o4)cc3F)nn2)c1 [Compound 3774, 3-(1-(4-(5-(difluoromethyl)-1,3,4-oxadiazol-2-yl)-2-fluorobenzyl)-1H-1,2,3-triazol-4-yl)-N,N-dimethylaniline]"
> 50,1201,41.6,–,–,–,"Fc1cc(-c2nnc(C(F)F)o2)ccc1Cn1cc(-c2cccc(NC3COC3)c2)nn1 [Compound 4332, N-(3-(1-(4-(5-(difluoromethyl)-1,3,4-oxadiazol-2-yl)-2-fluorobenzyl)-1H-1,2,3-triazol-4-yl)phenyl)oxetan-3-amine]"
–,–,–,> 50,2127,23.5,"FC(F)c1nnc(-c2ccc(Cn3cc(-c4ccnc(N5CCN(C6CC6)CC5)c4)nn3)nc2)o1 [Compound 4593, 2-(6-((4-(2-(4-cyclopropylpiperazin-1-yl)pyridin-4-yl)-1H-1,2,3-triazol-1-yl)methyl)pyridin-3-yl)-5-(difluoromethyl)-1,3,4-oxadiazole]"
–,–,–,> 50,1046,47.8,"CN1Cc2cccc(-c3cn(Cc4ccc(-c5nnc(C(F)F)o5)cn4)nn3)c2C1 [Compound 4595, 2-(difluoromethyl)-5-(6-((4-(2-methylisoindolin-4-yl)-1H-1,2,3-triazol-1-yl)methyl)pyridin-3-yl)-1,3,4-oxadiazole]"
> 50,4716,10.6,–,–,–,"CCN1CCN(c2cccc(-c3cn(Cc4ccc(-c5nnc(C(F)F)o5)cn4)nn3)c2)CC1 [Compound 3988, 2-(difluoromethyl)-5-(6-((4-(3-(4-ethylpiperazin-1-yl)phenyl)-1H-1,2,3-triazol-1-yl)methyl)pyridin-3-yl)-1,3,4-oxadiazole]"
–,–,–,> 50,603,82.9,"Fc1cc(-c2nnc(C(F)F)o2)ccc1Cn1cc(-c2ccc(CN3CCC(F)(F)CC3)nc2)nn1 [Compound 17778, 2-(difluoromethyl)-5-(4-((4-(6-((4,4-difluoropiperidin-1-yl)methyl)pyridin-3-yl)-1H-1,2,3-triazol-1-yl)methyl)-3-fluorophenyl)-1,3,4-oxadiazole]"
> 50,2439,20.5,–,–,–,"CN(C)c1cccc(-c2cn(Cc3ccc(-c4nnc(C(F)F)o4)cn3)nn2)c1 [Compound 3824, 3-(1-((5-(5-(difluoromethyl)-1,3,4-oxadiazol-2-yl)pyridin-2-yl)methyl)-1H-1,2,3-triazol-4-yl)-N,N-dimethylaniline]"
> 50,1628,30.7,–,–,–,"FC(F)c1nnc(-c2ccc(Cn3cc(-c4cccc(CN5CC(F)(F)C5)c4)nn3)nc2)o1 [Compound 4400, 2-(6-((4-(3-((3,3-difluoroazetidin-1-yl)methyl)phenyl)-1H-1,2,3-triazol-1-yl)methyl)pyridin-3-yl)-5-(difluoromethyl)-1,3,4-oxadiazole]"
> 50,473,105,–,–,–,"FC(F)c1nnc(-c2ccc(Cn3cc(-c4cncnc4)nn3)nc2)o1 [Compound 3960, 2-(difluoromethyl)-5-(6-((4-(pyrimidin-5-yl)-1H-1,2,3-triazol-1-yl)methyl)pyridin-3-yl)-1,3,4-oxadiazole]"
